The values below are quoted from earlier work in US5663205A, “Pharmaceutical composition for use in glaucoma treatment” (Senju Pharmaceutical Co. Ltd., priority 1992, dated 1997).

The structures appear in SMILES notation.

In the series the test system is α-adrenergic. To be noted: cited from earlier work.

On to `COc1ccccc1OCCNCC(O)c1ccc(C)c(S(N)(=O)=O)c1.Cl` (stereo not shown) [amosulalol hydrochloride, 5-[1-hydroxy-2-[2-(2-methoxyphenoxy)ethylamino]ethyl]-2-methylbenzenesulfonamide hydrochloride], for which the α-adrenergic blocking activity entry was “exhibit both α-adrenergic and β-adrenergic blocking activities”.
